According to US20190071670A1, “Methods Of Treatment For Alpha-1 Antitrypsin Deficiency” (Arrowhead Pharmaceuticals, Inc., priority 2016, published 2019):

System: hAAT
Experiment: Serum hAAT protein levels in PiZ mice (ELISA)
Assay type: in vivo, human (expressed in PiZ mice)
Conditions: for Serum hAAT levels reduced: 6 month old female PiZ mice, single IV 8 mg/kg + 8 mg/kg MLP delivery polymer; for Serum hAAT normalized to Day 1 and control / Normalized serum hAAT levels: PiZ mice; for Normalized serum hAAT levels: normalized to day 1 and saline control
Method: Human AAT protein levels in serum were monitored for 29 days. At the indicated times, blood samples were collected and assayed for hAAT by ELISA. Day 1 samples were collected prior to trigger administration. For mRNA analysis, 3-4 mice were euthanized at each of days 3, 8, 15, 22, and 29. For euthanized mice, cardiac stick were performed for serum isolation for AAT ELISA (200 μl serum). Half of the left lateral liver lobe was collected and snap-freeze in liquid nitrogen for RNA isolation. The remainder of the left lobes were embedded into paraffin blocks for PAS-D staining with hematoxylin as counter-stain. Serum hAAT levels in mice given AAT Duplex Pair SEQ ID NO: 5/6 were 95% reduced on day 8 and remained reduced to day 29, at which time they were 79% reduced. Mice given AAT Duplex Pair SEQ ID NO: 5/6 were euthanized at either day 3, 8, 15, 22 or 29. Mice given saline or Luciferase siRNA control (SEQ ID 7/8) were euthanized on day 29. Levels of hAAT mRNA in the livers were measured by RT-qPCR. The hAAT mRNA in mice given AAT Duplex Pair SEQ ID NO: 5/6 was reduced by 97% on day 3 and remained reduced on day 29, at which time levels were 56% reduced. The size of the globules and the area of the liver covered by globules was digitally quantitated from liver specimens stained with PAS-D. Duplex Pair SEQ ID NO: 5/6 treated mice had 70% smaller globules at day 15 and 62% smaller globules at day 29. The area of the liver covered with globules was 83% reduced on day 15 and 72% reduced on day 29 (FIG. 5).

Duplex Pair SEQ ID NO: 5/6: double-stranded AAT RNAi agent: modified antisense strand SEQ ID NO: 5 annealed to Chol-TEG sense strand SEQ ID NO: 6 (antisense TGGAACUUGGUGAUGAUAUTT; sense UAUAUAUCAUCACCAAGUUCCAT; Chol-TEG on sense strand; chemical modifications; antisense strand of dsRNA; modified_base 7 /mod_base = “2′-3′ seco corresponding nucleotide”; modified_base 2,4,6,8,10,12,14,16,18 /mod_base = “2′-deoxy-2′-fluoro corresponding nucleoside”; modified_base 3,5,9,11,13,15,17,19 /mod_base = “2′-O-methyl corresponding nucleoside”; modified_base 21 /mod_base = “5′-phosphorothioate corresponding nucleotide”; sense strand of dsRNA; modified_base 2 /mod_base = “2′-hydroxy corresponding nucleoside”; modified_base 4,6,8,10,12,14,16,18,20,22 /mod_base = “2′-deoxy-2′-fluoro corresponding nucleoside”; …)
Serum hAAT levels reduced (day 8): 95%
Serum hAAT levels reduced (day 29): 79%
Serum hAAT normalized to Day 1 and control (single IV 0.5 mg/kg + 4 mg/kg MLP delivery polymer, Day 1): 1.00
Serum hAAT normalized to Day 1 and control (single IV 0.5 mg/kg + 4 mg/kg MLP delivery polymer, Day 3): 0.27 ± 0.02
Serum hAAT normalized to Day 1 and control (single IV 0.5 mg/kg + 4 mg/kg MLP delivery polymer, Day 8): 0.29 ± 0.09
Serum hAAT normalized to Day 1 and control (single IV 0.5 mg/kg + 4 mg/kg MLP delivery polymer, Day 15): 0.43 ± 0.01
Serum hAAT normalized to Day 1 and control (single IV 0.5 mg/kg + 4 mg/kg MLP delivery polymer, Day 22): 0.73 ± 0.03
Serum hAAT normalized to Day 1 and control (single IV 0.5 mg/kg + 4 mg/kg MLP delivery polymer, Day 29): 0.66 ± 0.05
Serum hAAT normalized to Day 1 and control (single IV 0.5 mg/kg + 4 mg/kg MLP delivery polymer, Day 35): 0.97 ± 0.02
Serum hAAT normalized to Day 1 and control (single IV 0.5 mg/kg + 4 mg/kg MLP delivery polymer, Day −3): 0.64 ± 0.10
Serum hAAT normalized to Day 1 and control (single IV 0.5 mg/kg + 8 mg/kg MLP delivery polymer, Day 1): 1.00
Serum hAAT normalized to Day 1 and control (single IV 0.5 mg/kg + 8 mg/kg MLP delivery polymer, Day 3): 0.20 ± 0.02
Serum hAAT normalized to Day 1 and control (single IV 0.5 mg/kg + 8 mg/kg MLP delivery polymer, Day 8): 0.10 ± 0.03
Serum hAAT normalized to Day 1 and control (single IV 0.5 mg/kg + 8 mg/kg MLP delivery polymer, Day 15): 0.19 ± 0.05
Serum hAAT normalized to Day 1 and control (single IV 0.5 mg/kg + 8 mg/kg MLP delivery polymer, Day 22): 0.55 ± 0.05
Serum hAAT normalized to Day 1 and control (single IV 0.5 mg/kg + 8 mg/kg MLP delivery polymer, Day 29): 0.49 ± 0.09
Serum hAAT normalized to Day 1 and control (single IV 0.5 mg/kg + 8 mg/kg MLP delivery polymer, Day 35): 0.71 ± 0.09
Serum hAAT normalized to Day 1 and control (single IV 0.5 mg/kg + 8 mg/kg MLP delivery polymer, Day −3): 0.71 ± 0.03
Normalized serum hAAT levels (single IV 2 mg/kg + 2 mg/kg MLP, day 1): 1.00
Normalized serum hAAT levels (single IV 2 mg/kg + 2 mg/kg MLP, day 8): 0.32 ± 0.24
Normalized serum hAAT levels (single IV 2 mg/kg + 2 mg/kg MLP, day 15): 0.88 ± 0.13
Normalized serum hAAT levels (single IV 2 mg/kg + 2 mg/kg MLP, day 20): 0.89 ± 0.18
Normalized serum hAAT levels (single IV 2 mg/kg + 2 mg/kg MLP, day 29): 1.01 ± 0.23
Normalized serum hAAT levels (single IV 2 mg/kg + 2 mg/kg MLP, day 36): 1.02 ± 0.15
Normalized serum hAAT levels (single IV 2 mg/kg + 2 mg/kg MLP, day −7): 0.91 ± 0.11
Serum hAAT normalized to Day 1 and control (single IV 2 mg/kg + 4 mg/kg MLP delivery polymer, Day 1): 1.00
Serum hAAT normalized to Day 1 and control (single IV 2 mg/kg + 4 mg/kg MLP delivery polymer, Day 3): 0.25 ± 0.03
Serum hAAT normalized to Day 1 and control (single IV 2 mg/kg + 4 mg/kg MLP delivery polymer, Day 8): 0.21 ± 0.07
Serum hAAT normalized to Day 1 and control (single IV 2 mg/kg + 4 mg/kg MLP delivery polymer, Day 15): 0.32 ± 0.06
Serum hAAT normalized to Day 1 and control (single IV 2 mg/kg + 4 mg/kg MLP delivery polymer, Day 22): 0.71 ± 0.14
Serum hAAT normalized to Day 1 and control (single IV 2 mg/kg + 4 mg/kg MLP delivery polymer, Day 29): 0.66 ± 0.06
Serum hAAT normalized to Day 1 and control (single IV 2 mg/kg + 4 mg/kg MLP delivery polymer, Day 35): 0.70 ± 0.09
Serum hAAT normalized to Day 1 and control (single IV 2 mg/kg + 4 mg/kg MLP delivery polymer, Day −3): 0.67 ± 0.02
Normalized serum hAAT levels (single IV 2 mg/kg + 4 mg/kg MLP, day 1): 1.00
Normalized serum hAAT levels (single IV 2 mg/kg + 4 mg/kg MLP, day 8): 0.07 ± 0.04
Normalized serum hAAT levels (single IV 2 mg/kg + 4 mg/kg MLP, day 15): 0.50 ± 0.19
Normalized serum hAAT levels (single IV 2 mg/kg + 4 mg/kg MLP, day 20): 0.67 ± 0.12
Normalized serum hAAT levels (single IV 2 mg/kg + 4 mg/kg MLP, day 29): 0.89 ± 0.06
Normalized serum hAAT levels (single IV 2 mg/kg + 4 mg/kg MLP, day 36): 0.94 ± 0.17
Normalized serum hAAT levels (single IV 2 mg/kg + 4 mg/kg MLP, day −7): 0.90 ± 0.15
Serum hAAT normalized to Day 1 and control (single IV 2 mg/kg + 8 mg/kg MLP delivery polymer, Day 1): 1.00
Serum hAAT normalized to Day 1 and control (single IV 2 mg/kg + 8 mg/kg MLP delivery polymer, Day 3): 0.17 ± 0.03
Serum hAAT normalized to Day 1 and control (single IV 2 mg/kg + 8 mg/kg MLP delivery polymer, Day 8): 0.05 ± 0.00
Serum hAAT normalized to Day 1 and control (single IV 2 mg/kg + 8 mg/kg MLP delivery polymer, Day 15): 0.10 ± 0.03
Serum hAAT normalized to Day 1 and control (single IV 2 mg/kg + 8 mg/kg MLP delivery polymer, Day 22): 0.22 ± 0.03
Serum hAAT normalized to Day 1 and control (single IV 2 mg/kg + 8 mg/kg MLP delivery polymer, Day 29): 0.40 ± 0.06
Serum hAAT normalized to Day 1 and control (single IV 2 mg/kg + 8 mg/kg MLP delivery polymer, Day 35): 0.63 ± 0.04
Serum hAAT normalized to Day 1 and control (single IV 2 mg/kg + 8 mg/kg MLP delivery polymer, Day −3): 0.53 ± 0.08
Normalized serum hAAT levels (single IV 4 mg/kg + 2 mg/kg MLP, day 1): 1.00
Normalized serum hAAT levels (single IV 4 mg/kg + 2 mg/kg MLP, day 8): 0.08 ± 0.03
Normalized serum hAAT levels (single IV 4 mg/kg + 2 mg/kg MLP, day 15): 0.68 ± 0.13
Normalized serum hAAT levels (single IV 4 mg/kg + 2 mg/kg MLP, day 20): 0.90 ± 0.15
Normalized serum hAAT levels (single IV 4 mg/kg + 2 mg/kg MLP, day 29): 1.07 ± 0.07
Normalized serum hAAT levels (single IV 4 mg/kg + 2 mg/kg MLP, day 36): 1.01 ± 0.08
Normalized serum hAAT levels (single IV 4 mg/kg + 2 mg/kg MLP, day −7): 1.27 ± 0.07
Serum hAAT normalized to Day 1 and control (single IV 4 mg/kg + 4 mg/kg MLP delivery polymer, Day 1): 1.00
Serum hAAT normalized to Day 1 and control (single IV 4 mg/kg + 4 mg/kg MLP delivery polymer, Day 3): 0.27 ± 0.03
Serum hAAT normalized to Day 1 and control (single IV 4 mg/kg + 4 mg/kg MLP delivery polymer, Day 8): 0.13 ± 0.02
Serum hAAT normalized to Day 1 and control (single IV 4 mg/kg + 4 mg/kg MLP delivery polymer, Day 15): 0.23 ± 0.07
Serum hAAT normalized to Day 1 and control (single IV 4 mg/kg + 4 mg/kg MLP delivery polymer, Day 22): 0.58 ± 0.09
Serum hAAT normalized to Day 1 and control (single IV 4 mg/kg + 4 mg/kg MLP delivery polymer, Day 29): 0.60 ± 0.08
Serum hAAT normalized to Day 1 and control (single IV 4 mg/kg + 4 mg/kg MLP delivery polymer, Day 35): 0.92 ± 0.22
Serum hAAT normalized to Day 1 and control (single IV 4 mg/kg + 4 mg/kg MLP delivery polymer, Day −3): 0.70 ± 0.17
